We go through seven compounds from ChEMBL document CHEMBL1201862, “PubChem BioAssay data set” (2004).

Each structure is given as a SMILES string. The source made the active and inactive calls.

For assay [1], the target named is Serine/threonine-protein kinase pim-1 (Homo sapiens, UniProt P11309). The format is functional.
The target of assay [2] is Interleukin-1 receptor-associated kinase 4 (Homo sapiens, UniProt Q9NWZ3). The format is functional.
Assay [3] has as its target ALK tyrosine kinase receptor (Homo sapiens, UniProt Q9UM73). Format: functional.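 Further: ALK tested as one member of a kinase panel screen.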
The target in assay [4] is T1, Glycogen synthase kinase-3 beta (Homo sapiens, UniProt P49841). Format: functional.
Assay [5] deals with cAMP-dependent protein kinase catalytic subunit alpha (Homo sapiens, UniProt P17612). The format is functional.
Assay [6] has as its target Homeodomain-interacting protein kinase 2 (Homo sapiens, UniProt Q9H2X6). The format is functional.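 Further: measured within a kinome-wide kinase profiling panel, HIPK2 being one panel member.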
The target of assay [7] is Cell division cycle 7-related protein kinase (Homo sapiens, UniProt O00311). Format: functional.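 Further: value obtained from a kinome-wide kinase panel.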
Assay [8] is described as follows: Counterscreen for antagonists of the orexin 1 receptor (OX1R; HCRTR1): Fluorescence-based cell-based high throughput dose response assay to identify antagonists of the parental CHO cell line. [Related pubchem assays (depositor defined):AID434989, AID435008, AID463079, AID485270, AID492963, AID492964, AID492965, AID493232, AID504699, AID504701]. The format is functional. For orientation: A counterscreen serves to expose hits that act by an unwanted route or on another target.

For assay [9], the target named is T2, Orexin receptor type 2 (Homo sapiens, UniProt O43614). Description: Counterscreen assay for antagonists of the orexin 1 receptor (OX1R; HCRTR1): Homogeneous Time Resolved Fluorescence (HTRF)-based cell-based dose response assay for antagonists of the orexin 2 receptor (OX2R; HCRTR2), run by assay provider. The format is functional.
Assay [10] concerns the target T3, Orexin/Hypocretin receptor type 1 (Homo sapiens, UniProt O43613).
T3 sequence (O43613 whole entry): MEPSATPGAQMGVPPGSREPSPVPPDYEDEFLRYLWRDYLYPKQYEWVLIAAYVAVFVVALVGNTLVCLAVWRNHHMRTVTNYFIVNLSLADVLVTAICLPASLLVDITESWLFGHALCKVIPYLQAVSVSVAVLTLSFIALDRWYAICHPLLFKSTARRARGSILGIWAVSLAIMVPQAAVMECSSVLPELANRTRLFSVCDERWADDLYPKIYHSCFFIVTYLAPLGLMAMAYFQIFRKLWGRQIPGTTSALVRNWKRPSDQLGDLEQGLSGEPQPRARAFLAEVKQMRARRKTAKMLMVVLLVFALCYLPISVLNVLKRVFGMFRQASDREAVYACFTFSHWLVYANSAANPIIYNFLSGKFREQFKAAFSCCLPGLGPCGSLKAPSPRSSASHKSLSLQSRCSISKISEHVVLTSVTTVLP
Description: Homogeneous Time Resolved Fluorescence (HTRF)-based cell-based high throughput dose response assay for antagonists of the orexin 1 receptor (OX1R; HCRTR1). [Related pubchem assays (depositor defined):AID434989, AID435008, AID463079, AID485270, AID492963, AID492964, AID492965, AID493232, AID504717, AID504718]. The format is functional. On the technique in general: In TR-FRET formats the signal depends on donor and acceptor labels being close together.

The target of assay [11] is T2, Orexin receptor type 2. Description: Counterscreen assay for antagonists of the orexin 1 receptor (OX1R; HCRTR1): Fluorescence-based cell-based dose response assay for antagonists of the orexin 2 receptor (OX2R; HCRTR2), run by assay provider. Format: functional.
In assay [12] the target is T3, Orexin/Hypocretin receptor type 1. The assay can be described thus: Fluorescence-based cell-based high throughput dose response assay for antagonists of the orexin 1 receptor (OX1R; HCRTR1). [Related pubchem assays (depositor defined):AID434989, AID435008, AID463079, AID485270, AID492963, AID492964, AID492965, AID493232, AID504717, AID504718]. Format: functional.
The test system of a further assay is CHO-K1. The assay can be described thus: Counterscreen for antagonists of the orexin 1 receptor (OX1R; HCRTR1): Homogeneous time resolved fluorescence (HTRF)-based cell-based dose response assay to identify antagonists of the parental CHO-K1 cell line. [Related pubchem assays (depositor defined):AID434989, AID435008, AID463079, AID485270, AID492963, AID492964, AID492965, AID493232, AID504699, AID504701]. The format is functional. The conditions noted are these: Cricetulus griseus.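 Further: potency for inhibition of ATP-stimulated IP1 production as antagonists.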

In assay [13] the target is T1, Glycogen synthase kinase-3 beta. The assay can be described thus: Inhibition of Human GSK-3 beta Activity Measured in Biochemical System Using Microfluidics - 2063-05_Inhibitor_Dose_DryPowder_Activity_Set2. [Related pubchem assays (depositor defined):AID2709].
In assay [14] the target is Glycogen synthase kinase-3 alpha (Homo sapiens, UniProt P49840). The assay can be described thus: Inhibition of Human GSK-3 alpha Activity Measured in Biochemical System Using Microfluidics - 2063-06_Inhibitor_Dose_DryPowder_Activity_Set2. [Related pubchem assays (depositor defined):AID2709].
For assay [15], the target named is Cyclin-dependent kinase 5/CDK5 activator 1 (Homo sapiens, UniProt Q00535). The assay can be described thus: human CDK5 activity blockade – biochemical, microfluidic mobility shift, dry powder, selectivity assay for GSK-3 alpha inhibitor project, dose response (AID 588430).
The target of assay [16] is T4, Ubiquitin-conjugating enzyme E2 N (Homo sapiens, UniProt P61088).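 Further: Dose-response confirmation in a TR-FRET assay detecting UBC13-driven polyubiquitin chain formation, inhibition measured.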
T4 sequence (P61088 whole entry): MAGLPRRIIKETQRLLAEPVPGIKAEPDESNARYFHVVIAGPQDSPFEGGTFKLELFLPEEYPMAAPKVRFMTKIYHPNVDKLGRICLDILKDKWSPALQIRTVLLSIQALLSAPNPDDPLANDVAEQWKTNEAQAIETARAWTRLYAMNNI
Format: functional.

Assay [17] can be described thus: Counterscreen for inhibitors of Trypanosoma brucei methionyl tRNA synthetase (MetRS): Luminescence-based cell-based high throughput dose response assay to identify compounds that are cytotoxic to Jurkat human T lymphocyte cells. Format: functional.
Assay [18] addresses Protein disulfide-isomerase (Homo sapiens, UniProt P07237). Description: inhibition of PDI-driven insulin aggregation – biochemical, turbidity, absorbance, cherry-picked samples, dose response (AID 602350). Format: functional.
Assay [19] has as its target T5, Methionyl-tRNA synthetase, putative (Trypanosoma brucei brucei, UniProt Q38C91).
T5 sequence (Q38C91 whole entry): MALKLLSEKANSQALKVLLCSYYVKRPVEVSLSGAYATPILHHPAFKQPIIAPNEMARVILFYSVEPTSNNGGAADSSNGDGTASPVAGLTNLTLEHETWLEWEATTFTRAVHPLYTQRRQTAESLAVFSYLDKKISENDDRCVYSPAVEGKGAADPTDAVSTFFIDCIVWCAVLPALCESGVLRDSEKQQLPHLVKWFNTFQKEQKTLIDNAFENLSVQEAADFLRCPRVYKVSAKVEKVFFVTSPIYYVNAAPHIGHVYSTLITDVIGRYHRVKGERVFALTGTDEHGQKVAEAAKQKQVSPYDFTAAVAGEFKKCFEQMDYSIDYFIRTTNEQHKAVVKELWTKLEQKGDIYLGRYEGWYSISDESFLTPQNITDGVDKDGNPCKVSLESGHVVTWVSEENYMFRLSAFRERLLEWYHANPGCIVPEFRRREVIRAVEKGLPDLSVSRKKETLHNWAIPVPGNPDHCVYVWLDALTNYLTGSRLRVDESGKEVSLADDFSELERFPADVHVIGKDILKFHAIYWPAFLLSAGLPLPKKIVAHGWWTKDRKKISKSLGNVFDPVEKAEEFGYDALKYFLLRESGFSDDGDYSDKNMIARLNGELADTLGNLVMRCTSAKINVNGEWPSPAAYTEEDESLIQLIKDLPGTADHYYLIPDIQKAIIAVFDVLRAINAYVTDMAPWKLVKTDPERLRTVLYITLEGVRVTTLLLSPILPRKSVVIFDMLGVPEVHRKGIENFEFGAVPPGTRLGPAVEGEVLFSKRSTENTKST
Format: functional, Trypanosoma brucei brucei strain 927/4 GUTat10.1.

For assay [20], the target named is T5, Methionyl-tRNA synthetase, putative. The format is functional, Trypanosoma brucei brucei strain 927/4 GUTat10.1. This is another data set of the same source.
The nature of assay [21]: Mcl1-dependent cancer cell viability – HMC-1-8 cells, luminescence, dry powder, selectivity assay for A1 inhibitor project, dose response (AID 504415). The format is functional, cell-based. The conditions noted are these: Homo sapiens.
In assay [22] the target is Testis-specific serine/threonine-protein kinase 2 (Homo sapiens, UniProt Q96PF2). The format is functional.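 Further: part of the Navigating the Kinome panel, target entry STK22B.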
Assay [23] is described as follows: cells. The conditions noted are these: A549.
Assay [24] can be described thus: Luminescence Cell-Based Dose Retest to Confirm Inhibitors of Cancer Stem Cells. [Related pubchem assays (depositor defined):AID2717, AID2721]. Format: functional. The conditions noted are these: Homo sapiens.
Assay [25] has as its target T6, High affinity choline transporter 1 (Homo sapiens, UniProt Q9GZV3).
T6 sequence (Q9GZV3 whole entry): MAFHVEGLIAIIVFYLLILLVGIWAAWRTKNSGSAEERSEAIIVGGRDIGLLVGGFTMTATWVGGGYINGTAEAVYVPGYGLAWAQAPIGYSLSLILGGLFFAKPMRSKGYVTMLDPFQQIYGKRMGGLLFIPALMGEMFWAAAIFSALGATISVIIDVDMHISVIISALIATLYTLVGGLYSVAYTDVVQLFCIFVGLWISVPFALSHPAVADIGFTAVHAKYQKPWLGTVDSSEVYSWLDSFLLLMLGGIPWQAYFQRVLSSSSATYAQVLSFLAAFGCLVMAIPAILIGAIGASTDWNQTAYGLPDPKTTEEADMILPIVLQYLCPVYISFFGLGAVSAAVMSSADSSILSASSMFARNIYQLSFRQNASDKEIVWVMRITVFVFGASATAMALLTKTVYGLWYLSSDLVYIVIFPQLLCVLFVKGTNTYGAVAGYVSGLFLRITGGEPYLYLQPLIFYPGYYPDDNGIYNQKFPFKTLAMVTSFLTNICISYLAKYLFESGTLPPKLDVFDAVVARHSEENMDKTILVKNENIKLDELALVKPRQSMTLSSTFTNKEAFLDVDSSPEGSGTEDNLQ
The assay can be described thus: human choline transporter potentiators, potency – cell-based, 10-point CRC, membrane potential dye, dose response (AID 602376). Format: functional.

The next assay concerns INS1. The assay can be described thus: INS-1E survival protection against cytokine death – cell-based, luminescence, retest, dose response (AID 449756).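 Further: cell death triggered by IL-1 beta plus TNF-alpha plus IFN-gamma mixture; protective hits raise ATP signal compared with cytokine alone wells.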 Format: functional. The conditions noted are these: Rattus norvegicus.
The nature of assay [26]: cells. The conditions noted are these: HEK293.
Assay [27] is described as follows: viability loss in HepG2 liver cells – cell-based, ATP luminescence, cherry-pick, set 6, cytotoxicity control, dose response (AID 1053125). The format is functional.
Assay [28] addresses RNA-editing ligase 1, mitochondrial (Trypanosoma brucei brucei, UniProt P86926). The assay can be described thus: inhibition of trypanosome RNA editing ligase – biochemical, fluorescence, Trypanosoma brucei, dose response (AID 1117295). The format is functional.

What is called Ki is a dissociation constant, usually derived from enzyme kinetics or from competition with a known ligand. By IC50 is commonly meant the concentration at which inhibition is half-maximal. The term AC50 denotes the concentration at which the activity in the assay is half-maximal. As usually defined, the EC50 is the concentration needed to bring the measured effect to its halfway point.

T1 sequence (P49841 whole entry): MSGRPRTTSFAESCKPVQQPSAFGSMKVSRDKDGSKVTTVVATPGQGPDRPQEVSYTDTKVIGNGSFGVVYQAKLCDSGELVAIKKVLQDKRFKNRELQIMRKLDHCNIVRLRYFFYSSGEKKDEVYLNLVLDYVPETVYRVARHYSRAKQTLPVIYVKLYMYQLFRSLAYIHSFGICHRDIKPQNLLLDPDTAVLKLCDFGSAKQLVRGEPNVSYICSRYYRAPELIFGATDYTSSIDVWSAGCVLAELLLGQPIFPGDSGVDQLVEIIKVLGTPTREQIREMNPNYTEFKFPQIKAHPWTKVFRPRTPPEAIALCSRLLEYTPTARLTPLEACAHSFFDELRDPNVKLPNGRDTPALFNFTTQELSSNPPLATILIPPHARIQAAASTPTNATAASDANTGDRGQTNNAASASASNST
T2 sequence (O43614 whole entry): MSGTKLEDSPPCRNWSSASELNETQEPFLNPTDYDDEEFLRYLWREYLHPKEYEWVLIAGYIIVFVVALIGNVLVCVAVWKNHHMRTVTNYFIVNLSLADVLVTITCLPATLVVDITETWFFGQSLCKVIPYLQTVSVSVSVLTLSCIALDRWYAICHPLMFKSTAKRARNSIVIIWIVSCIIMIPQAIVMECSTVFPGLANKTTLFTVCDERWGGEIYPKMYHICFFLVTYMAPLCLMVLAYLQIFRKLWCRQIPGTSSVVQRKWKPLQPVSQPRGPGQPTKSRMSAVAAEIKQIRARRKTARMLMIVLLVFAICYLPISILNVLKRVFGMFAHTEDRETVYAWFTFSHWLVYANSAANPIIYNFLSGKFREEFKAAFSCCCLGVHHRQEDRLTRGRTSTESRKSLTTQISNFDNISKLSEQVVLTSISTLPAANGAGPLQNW
Interleukin-1 receptor-associated kinase 4, sequence (Q9NWZ3 whole entry): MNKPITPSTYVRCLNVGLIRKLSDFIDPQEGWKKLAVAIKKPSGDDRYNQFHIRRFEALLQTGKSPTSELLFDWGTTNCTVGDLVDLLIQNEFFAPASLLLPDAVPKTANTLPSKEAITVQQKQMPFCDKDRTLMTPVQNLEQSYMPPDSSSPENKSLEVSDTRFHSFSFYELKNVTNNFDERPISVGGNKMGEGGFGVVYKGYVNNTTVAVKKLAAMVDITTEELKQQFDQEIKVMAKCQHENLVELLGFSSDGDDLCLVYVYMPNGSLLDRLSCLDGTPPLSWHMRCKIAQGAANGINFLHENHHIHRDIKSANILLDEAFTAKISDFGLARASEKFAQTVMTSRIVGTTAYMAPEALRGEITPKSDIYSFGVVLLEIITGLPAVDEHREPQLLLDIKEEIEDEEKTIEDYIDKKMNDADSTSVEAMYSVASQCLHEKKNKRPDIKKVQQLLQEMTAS
Serine/threonine-protein kinase pim-1, sequence (P11309 whole entry): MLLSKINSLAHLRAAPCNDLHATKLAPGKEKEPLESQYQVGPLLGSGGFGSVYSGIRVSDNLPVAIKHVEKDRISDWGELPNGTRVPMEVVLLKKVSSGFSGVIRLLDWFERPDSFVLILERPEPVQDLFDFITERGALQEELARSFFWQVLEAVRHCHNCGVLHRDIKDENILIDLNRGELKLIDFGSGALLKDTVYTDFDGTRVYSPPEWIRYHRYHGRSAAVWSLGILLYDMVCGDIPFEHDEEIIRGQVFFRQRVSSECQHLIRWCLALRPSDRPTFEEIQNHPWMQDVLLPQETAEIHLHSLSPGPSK
ALK tyrosine kinase receptor, sequence (Q9UM73 whole entry): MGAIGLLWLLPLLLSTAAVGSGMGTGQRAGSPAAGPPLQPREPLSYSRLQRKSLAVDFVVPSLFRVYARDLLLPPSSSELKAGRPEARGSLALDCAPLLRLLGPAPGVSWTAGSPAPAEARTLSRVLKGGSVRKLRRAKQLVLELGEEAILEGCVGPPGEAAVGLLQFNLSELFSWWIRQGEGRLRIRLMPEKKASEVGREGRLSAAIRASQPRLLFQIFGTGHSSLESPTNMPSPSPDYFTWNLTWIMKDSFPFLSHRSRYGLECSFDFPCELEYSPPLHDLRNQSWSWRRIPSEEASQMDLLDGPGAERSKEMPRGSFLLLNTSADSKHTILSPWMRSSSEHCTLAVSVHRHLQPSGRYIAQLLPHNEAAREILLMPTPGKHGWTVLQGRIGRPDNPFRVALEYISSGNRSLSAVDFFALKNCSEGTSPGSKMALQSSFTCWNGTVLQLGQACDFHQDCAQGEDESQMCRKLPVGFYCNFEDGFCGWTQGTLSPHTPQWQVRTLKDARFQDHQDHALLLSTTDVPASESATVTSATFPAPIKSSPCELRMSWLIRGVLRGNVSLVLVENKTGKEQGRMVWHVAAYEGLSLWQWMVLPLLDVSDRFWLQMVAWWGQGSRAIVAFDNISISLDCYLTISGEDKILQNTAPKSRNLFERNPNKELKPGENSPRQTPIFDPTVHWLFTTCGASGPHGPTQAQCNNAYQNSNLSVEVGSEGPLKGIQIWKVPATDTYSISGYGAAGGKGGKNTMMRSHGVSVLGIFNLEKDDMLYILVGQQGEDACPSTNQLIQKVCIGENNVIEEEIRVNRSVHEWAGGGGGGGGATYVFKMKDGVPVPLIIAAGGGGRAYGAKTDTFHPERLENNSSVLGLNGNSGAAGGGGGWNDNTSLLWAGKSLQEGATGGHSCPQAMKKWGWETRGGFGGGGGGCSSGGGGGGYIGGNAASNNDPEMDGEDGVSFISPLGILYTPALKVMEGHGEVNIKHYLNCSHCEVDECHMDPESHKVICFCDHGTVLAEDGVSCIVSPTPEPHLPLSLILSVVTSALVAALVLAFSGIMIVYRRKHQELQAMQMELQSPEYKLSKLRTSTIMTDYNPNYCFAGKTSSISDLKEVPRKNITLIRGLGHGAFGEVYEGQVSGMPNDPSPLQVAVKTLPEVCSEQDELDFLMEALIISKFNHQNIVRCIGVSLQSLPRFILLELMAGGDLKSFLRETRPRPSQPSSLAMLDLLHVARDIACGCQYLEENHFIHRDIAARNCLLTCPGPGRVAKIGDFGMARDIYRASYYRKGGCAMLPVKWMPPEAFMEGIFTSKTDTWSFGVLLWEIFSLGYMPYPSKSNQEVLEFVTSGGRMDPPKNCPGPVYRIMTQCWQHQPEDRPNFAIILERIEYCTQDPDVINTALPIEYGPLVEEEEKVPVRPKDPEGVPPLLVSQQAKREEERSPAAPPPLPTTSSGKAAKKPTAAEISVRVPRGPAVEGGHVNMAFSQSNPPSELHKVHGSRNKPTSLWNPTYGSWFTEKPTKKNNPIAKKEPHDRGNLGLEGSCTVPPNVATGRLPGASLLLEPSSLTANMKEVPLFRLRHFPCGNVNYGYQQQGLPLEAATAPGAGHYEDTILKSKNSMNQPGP
Cell division cycle 7-related protein kinase, sequence (O00311 whole entry): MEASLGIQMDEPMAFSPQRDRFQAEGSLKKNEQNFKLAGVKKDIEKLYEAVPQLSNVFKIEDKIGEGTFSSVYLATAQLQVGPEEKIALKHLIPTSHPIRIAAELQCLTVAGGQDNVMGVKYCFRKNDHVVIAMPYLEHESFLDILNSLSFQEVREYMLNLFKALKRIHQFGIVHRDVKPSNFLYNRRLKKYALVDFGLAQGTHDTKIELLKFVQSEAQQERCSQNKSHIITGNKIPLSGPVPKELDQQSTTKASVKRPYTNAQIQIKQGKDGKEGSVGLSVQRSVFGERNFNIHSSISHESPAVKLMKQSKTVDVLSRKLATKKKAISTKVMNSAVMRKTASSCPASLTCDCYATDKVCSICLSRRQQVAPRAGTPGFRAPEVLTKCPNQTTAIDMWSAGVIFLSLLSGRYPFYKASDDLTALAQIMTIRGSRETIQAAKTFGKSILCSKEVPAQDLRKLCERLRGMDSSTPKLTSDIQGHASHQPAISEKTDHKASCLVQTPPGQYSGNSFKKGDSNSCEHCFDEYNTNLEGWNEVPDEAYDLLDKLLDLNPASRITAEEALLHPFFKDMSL
Homeodomain-interacting protein kinase 2, sequence (Q9H2X6 whole entry): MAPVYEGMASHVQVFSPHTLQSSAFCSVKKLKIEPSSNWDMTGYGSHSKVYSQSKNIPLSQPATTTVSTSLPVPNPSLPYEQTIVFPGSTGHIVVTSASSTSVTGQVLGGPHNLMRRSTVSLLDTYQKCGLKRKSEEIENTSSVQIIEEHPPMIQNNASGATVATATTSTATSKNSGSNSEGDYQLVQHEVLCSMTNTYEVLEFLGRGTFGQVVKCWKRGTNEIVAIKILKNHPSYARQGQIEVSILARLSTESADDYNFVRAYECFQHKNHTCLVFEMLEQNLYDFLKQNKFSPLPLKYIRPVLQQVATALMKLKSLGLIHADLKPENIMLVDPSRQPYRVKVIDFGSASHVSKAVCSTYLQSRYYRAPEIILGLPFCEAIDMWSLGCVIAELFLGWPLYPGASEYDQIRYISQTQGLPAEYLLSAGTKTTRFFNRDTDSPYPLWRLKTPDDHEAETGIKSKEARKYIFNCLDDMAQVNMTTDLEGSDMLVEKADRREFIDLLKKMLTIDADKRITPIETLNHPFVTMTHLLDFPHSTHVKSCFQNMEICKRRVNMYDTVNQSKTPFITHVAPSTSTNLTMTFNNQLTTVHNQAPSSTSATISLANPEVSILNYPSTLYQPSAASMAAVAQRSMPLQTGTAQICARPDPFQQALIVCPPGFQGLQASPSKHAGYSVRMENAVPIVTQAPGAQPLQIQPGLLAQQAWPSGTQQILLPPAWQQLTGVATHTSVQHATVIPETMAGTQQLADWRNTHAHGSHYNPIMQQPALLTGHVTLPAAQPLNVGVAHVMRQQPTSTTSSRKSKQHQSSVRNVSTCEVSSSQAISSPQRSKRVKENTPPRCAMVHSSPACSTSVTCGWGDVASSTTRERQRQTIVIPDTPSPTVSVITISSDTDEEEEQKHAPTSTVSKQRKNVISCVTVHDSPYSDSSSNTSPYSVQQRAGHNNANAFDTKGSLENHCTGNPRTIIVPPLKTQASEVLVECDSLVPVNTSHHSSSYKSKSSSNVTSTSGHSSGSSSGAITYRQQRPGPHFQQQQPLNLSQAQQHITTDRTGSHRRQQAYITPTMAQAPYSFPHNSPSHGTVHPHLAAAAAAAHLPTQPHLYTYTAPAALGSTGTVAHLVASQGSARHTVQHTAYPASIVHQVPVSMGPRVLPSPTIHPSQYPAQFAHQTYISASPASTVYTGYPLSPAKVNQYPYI

As for `CN(Cc1ccccc1)c1cc(-c2c[nH]c3ncccc23)cc(Cl)n1`, the Ki in assay [1] was 0.251 µM (active); in [2], 0.2 µM (active); in assay [3], > 5.01 µM (inactive); in assay [4], 0.0398 µM (active); in assay [5], 0.0398 µM (active); in assay [6], 0.158 µM (active). Also, the inhibition constant (Ki) in assay [7] is 0.00794 µM (active).
As for `Cc1ccc(-c2cc3nc(-c4ccccc4)cc(N4CCC5(CC4)OCCO5)n3n2)cc1`, the IC50 was > 49.7 µM (inactive) in [8]; > 50 µM (inactive) on Orexin receptor type 2 [9]; 5.68 µM (active) in assay [10]; 24.9 µM (inactive) at Orexin receptor type 2 [11]; 17.4 µM (inactive) in assay [12]; > 66.2 µM (inactive) with CHO-K1.
For `O/N=C/c1cn(-c2ccccc2)nc1-c1ccc2c(c1)OCCO2`, the AC50 was 0.351 µM (active) in assay [13], 0.984 µM (active) in assay [14] and 28.4 µM (active) in [15]. In addition, in assay [16], the IC50 was > 20 µM (inactive).
Turning to `C[C@H]1CN([C@@H](C)CO)C(=O)Cc2cc(NC(=O)Nc3ccccc3)ccc2O[C@H]1CN(C)Cc1ccccc1`, the IC50 in assay [17] was 27.8 µM (inactive); in [19], 21.4 µM (inactive); in assay [20], 25.1 µM (inactive). The concentration at half-maximal activity (AC50) in assay [18] is 10.3 µM (active).
On to `Cc1ccc(Sc2c([N+](=O)[O-])cnc3ccccc23)cc1`, for which the AC50 in assay [21] is 22.9 µM (active).
Take `CNC(=O)c1cc(Oc2ccc(NC(=O)Nc3ccc(Cl)c(C(F)(F)F)c3)cc2)ccn1` [SORAFENIB]: the Ki in [22] was > 1.58 µM (inactive).
In the case of `COc1ccc(C[C@H]2CN3C(=NC[C@@H]3Cc3ccccc3)N2CCNC(=O)CCC2CCCCC2)cc1`, the AC50 in the assay “cells [23]” was 8.94 µM (active); in [24], 11.2 µM (active); in the assay with INS1, 5.74 µM (active); in the assay “cells [26]” it was 13.4 µM (active); in assay [27], 7.94 µM (active). Besides, in assay [25], the 50% effective concentration (EC50) was 22 µM (active). In addition, the values for the IC50 in assay [16] and in assay [28] were > 20 µM (inactive) and > 96.6 µM (inactive), respectively.
